Reference: PMC10661964 (Current Drug Metabolism, 2023)

Key:
Format in all cases: in vitro ADME
MATE1 = target: T1, MATE1 (Homo sapiens, UniProt Q96FL8); test: MATE1 transport assay in overexpressing HEK293 cells; settings: probe substrate metformin 20 µM
T1 construct: expressed in transfected cells; host or cells: HEK293, stably transfected
T1 sequence (Q96FL8 1-570): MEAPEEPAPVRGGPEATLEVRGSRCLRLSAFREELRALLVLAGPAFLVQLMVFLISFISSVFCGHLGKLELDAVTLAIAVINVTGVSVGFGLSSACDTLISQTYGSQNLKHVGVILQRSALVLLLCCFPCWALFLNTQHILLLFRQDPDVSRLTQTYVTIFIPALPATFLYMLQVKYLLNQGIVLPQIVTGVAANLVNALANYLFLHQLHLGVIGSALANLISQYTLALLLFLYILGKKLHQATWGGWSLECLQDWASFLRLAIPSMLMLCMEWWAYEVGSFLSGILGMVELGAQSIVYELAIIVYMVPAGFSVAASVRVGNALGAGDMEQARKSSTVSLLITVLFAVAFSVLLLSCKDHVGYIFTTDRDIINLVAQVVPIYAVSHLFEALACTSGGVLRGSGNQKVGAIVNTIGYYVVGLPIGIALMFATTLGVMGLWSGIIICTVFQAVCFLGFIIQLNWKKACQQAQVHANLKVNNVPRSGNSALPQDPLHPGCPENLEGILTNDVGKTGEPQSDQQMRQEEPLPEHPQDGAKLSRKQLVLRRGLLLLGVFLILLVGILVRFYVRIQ
Protocol: (§1) The inhibition of cytochrome P450 (CYP) isoforms and a range of cellular transporters (except multidrug and toxin extrusion [MATE] proteins), as well as the induction of CYP isoforms were investigated using previously described methods.
Supplementary Material Current Drug Metabolism, 2023, Vol. 24, No. 8 iii […]
-, not determined; BCRP, breast cancer resistance protein; P-gp, P-glycoprotein; MATE, multidrug and toxin extrusion. aThe highest test concentration of 20 µM was not valid in this assay for technical reasons.
OAT, organic anion transporter; OATP, organic anion transporting polypeptide; OCT, organic cation transporters.
After thawing from frozen storage, aliquots of approximately 3 x 10^6 cells of human embryonic kidney (HEK293) cell line stable overex-pressing MATE1 or MATE2K were transferred to cell culture dishes containing 10 mL of DMEM-medium (supplemented with 10% FBS, 1% penicillin [10.000 U/mL]/streptomycin [10 mg/mL] and hygromycin B [150 µg/mL]) at 37°C. Transporter-transfected and vector-transfected HEK cells were grown on cell culture dishes at 37°C in a humidified 5% CO 2 atmosphere. All cell lines were confirmed free from mycoplasma by routine testing with conventional PCR. Cell cultures were split when they had grown to confluency. For passaging, cells were washed with PBS, exposed to trypsin-EDTA for 5 min at room temperature, collected by centrifugation, resuspended in culture medium and […]
MATE1 and MATE2K Transport Assays
Transporter-transfected and vector-transfected cells were prepared for use in uptake assays by harvesting and plating into 24-well-plates pre-coated with poly-D-lysine hydrobromide at a density of 2 x 10^5 cells/well and then cultured for 3 days in DMEM growth medium (high glucose, 10% FBS, 1% penicillin/streptomycin). For uptake assays, the growth medium was aspirated and each plate well was rinsed twice with HBSS supplemented with 20 mM HEPES, pH 7.4. The intracellular environment was acidified by preincubation in 30 mM NH4Cl in buffer pH 7.4 at 37°C for 30 min. […]

P-gp = P-gp (Homo sapiens, UniProt P08183); test: Efflux transporter inhibition
Excerpt: as §1

BCRP = target: T2, BCRP (Homo sapiens, UniProt Q9UNQ0); test: Efflux transporter inhibition
T2 sequence (Q9UNQ0 1-655): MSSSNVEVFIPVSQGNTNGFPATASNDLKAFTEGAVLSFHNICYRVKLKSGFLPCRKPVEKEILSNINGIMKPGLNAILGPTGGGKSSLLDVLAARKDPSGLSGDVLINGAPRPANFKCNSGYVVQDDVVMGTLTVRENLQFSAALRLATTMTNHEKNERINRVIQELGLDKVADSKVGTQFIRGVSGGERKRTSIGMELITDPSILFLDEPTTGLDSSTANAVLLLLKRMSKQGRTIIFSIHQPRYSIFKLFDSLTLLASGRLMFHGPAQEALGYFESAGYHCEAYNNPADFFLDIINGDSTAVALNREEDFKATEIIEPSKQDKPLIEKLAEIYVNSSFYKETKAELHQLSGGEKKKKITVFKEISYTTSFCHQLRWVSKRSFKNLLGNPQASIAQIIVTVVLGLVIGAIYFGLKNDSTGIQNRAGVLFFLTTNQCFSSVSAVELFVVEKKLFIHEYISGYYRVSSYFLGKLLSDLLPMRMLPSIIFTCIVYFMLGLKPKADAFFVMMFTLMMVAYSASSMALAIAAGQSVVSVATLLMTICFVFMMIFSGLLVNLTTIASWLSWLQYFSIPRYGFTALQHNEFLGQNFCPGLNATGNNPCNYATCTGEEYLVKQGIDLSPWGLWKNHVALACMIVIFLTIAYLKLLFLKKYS
Excerpt: as §1

CYP 2A6 = target: T3, CYP 2A6 (Homo sapiens, UniProt P11509); test: CYP inhibition with probe substrate; settings: coincubation, probe substrate coumarin; read-out: Co- IC50
T3 sequence (P11509 1-494): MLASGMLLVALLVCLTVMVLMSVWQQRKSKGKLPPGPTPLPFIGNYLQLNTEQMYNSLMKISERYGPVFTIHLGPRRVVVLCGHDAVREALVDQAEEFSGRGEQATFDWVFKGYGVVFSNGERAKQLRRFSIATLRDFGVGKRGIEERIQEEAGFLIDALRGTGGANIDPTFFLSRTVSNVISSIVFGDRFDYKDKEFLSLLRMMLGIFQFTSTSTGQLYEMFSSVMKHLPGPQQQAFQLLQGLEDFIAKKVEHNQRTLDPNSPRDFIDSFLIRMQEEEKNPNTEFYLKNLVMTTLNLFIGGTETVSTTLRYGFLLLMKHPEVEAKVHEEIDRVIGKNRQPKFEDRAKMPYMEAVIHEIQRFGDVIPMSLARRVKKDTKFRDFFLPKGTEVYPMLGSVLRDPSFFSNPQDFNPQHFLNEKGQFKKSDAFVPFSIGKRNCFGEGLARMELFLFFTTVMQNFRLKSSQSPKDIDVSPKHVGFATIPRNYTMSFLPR
Excerpt: as §1

[1] = system: human CYP enzymes (all isoforms tested); test: CYP inhibition, all isoforms tested (summary); settings: reversible and irreversible
Excerpt: as §1

[2] = probe substrate digoxin, for M-4 the highest test concentration of 20 µM was not valid

P-gp, sequence (P08183 whole entry): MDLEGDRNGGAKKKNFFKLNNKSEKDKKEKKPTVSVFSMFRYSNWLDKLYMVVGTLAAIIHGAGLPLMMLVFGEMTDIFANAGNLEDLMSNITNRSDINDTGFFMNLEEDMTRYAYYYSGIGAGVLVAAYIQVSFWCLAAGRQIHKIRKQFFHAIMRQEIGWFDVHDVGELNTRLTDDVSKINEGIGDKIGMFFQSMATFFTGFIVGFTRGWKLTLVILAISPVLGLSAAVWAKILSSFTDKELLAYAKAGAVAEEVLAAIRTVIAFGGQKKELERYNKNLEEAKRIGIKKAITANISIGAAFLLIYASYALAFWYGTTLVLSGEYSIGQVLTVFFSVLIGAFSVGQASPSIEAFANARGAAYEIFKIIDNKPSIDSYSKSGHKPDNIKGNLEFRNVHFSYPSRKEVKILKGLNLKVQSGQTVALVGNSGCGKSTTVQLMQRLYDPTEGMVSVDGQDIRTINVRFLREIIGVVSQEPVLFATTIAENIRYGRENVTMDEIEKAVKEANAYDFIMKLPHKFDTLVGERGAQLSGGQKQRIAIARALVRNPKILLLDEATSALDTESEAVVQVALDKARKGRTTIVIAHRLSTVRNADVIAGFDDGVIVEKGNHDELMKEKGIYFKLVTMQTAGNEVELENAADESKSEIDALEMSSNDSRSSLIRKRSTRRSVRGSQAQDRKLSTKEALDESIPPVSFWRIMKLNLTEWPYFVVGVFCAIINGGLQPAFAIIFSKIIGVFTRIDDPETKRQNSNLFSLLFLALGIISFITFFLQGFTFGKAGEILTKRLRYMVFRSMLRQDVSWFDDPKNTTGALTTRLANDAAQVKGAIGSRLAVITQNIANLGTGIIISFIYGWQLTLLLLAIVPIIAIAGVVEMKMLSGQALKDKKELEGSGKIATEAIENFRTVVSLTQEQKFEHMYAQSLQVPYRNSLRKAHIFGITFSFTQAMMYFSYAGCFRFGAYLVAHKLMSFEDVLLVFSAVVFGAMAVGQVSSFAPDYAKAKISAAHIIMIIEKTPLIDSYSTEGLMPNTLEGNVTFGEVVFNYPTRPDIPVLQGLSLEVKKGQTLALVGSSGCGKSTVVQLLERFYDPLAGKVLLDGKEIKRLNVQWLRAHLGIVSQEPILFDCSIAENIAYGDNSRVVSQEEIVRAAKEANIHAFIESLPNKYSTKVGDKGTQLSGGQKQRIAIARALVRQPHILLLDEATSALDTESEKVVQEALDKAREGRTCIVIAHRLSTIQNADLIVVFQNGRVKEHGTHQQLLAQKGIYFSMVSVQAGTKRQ

SMILES	IC50 (MATE1) [µM]	IC50 (P-gp; [2]) [µM]	IC50 (P-gp; probe substrate dipyridamole) [µM]	IC50 (BCRP; probe substrate fluvastatin) [µM]	IC50 (BCRP; probe substrate topotecan) [µM]	IC50 (CYP 2A6) [µM]	IC50 [1] [µM]
CC1CS(=O)(=O)CCN1n1cc(SCC(N)C(=O)O)ccc1=O (centres unmarked) [M-4]	> 5	> 5	> 20	> 20	> 20	> 20	> 20
CC1CS(=O)(=O)CCN1N (centres unmarked) [M-6]	> 30	> 200	> 200	> 200	> 200	> 100	> 100
CC1CS(=O)(=O)CCN1/N=C/c1ccc([N+](=O)[O-])o1 (centres unmarked) [Nifurtimox, (E)-N-(3-methyl-1,1-dioxo-1,4-thiazinan-4-yl)-1-(5-nitrofuran-2-yl) methanimine, reference compound]	> 20	> 100	> 100	–	> 100	> 50	> 50
